# Experimental data published in patent publication US20070202503A1, “Pharmaceutical Composition Of (+)-Erythro-Mefloquine And Its Use” (priority 2004, published 2007).
# Experiments:
# human neutrophil = settings: cited from earlier work
# [1] = Adverse events in clinical study on a background of methotrexate therapy; format: in vivo, patients; settings: combination of (+)-erythro-mefloquine and methotrexate
# Text: The formulations were used on a background of methotrexate therapy.
# This is shown in FIG. 2, a plot of TMD (mean score) against time (days); ♦ represents placebo, ▴ represents A, ▪ represents B and ★ represents C.
SMILES,effect on human neutrophil degranulation (human neutrophil),Adverse events compared with methotrexate alone [1]
"OC(c1cc(C(F)(F)F)nc2c(C(F)(F)F)cccc12)C1CCCCN1 (racemic) [Racemic mefloquine, mefloquine]",stimulates human neutrophil degranulation,
O[C@H](c1cc(C(F)(F)F)nc2c(C(F)(F)F)cccc12)[C@@H]1CCCCN1 [(+)-erythro-mefloquine],,lower adverse events than methotrexate alone
